This note sets out measurements from US4584293A, “Aminotetralin derivatives” (Dr. Karl Thomae GmbH, priority 1984, dated 1986).

Structures can show the parent of a compound that is named as a salt.

What all share (assay type): in vivo
Data set [1] deals with heart rate. The data set is described as follows: Effect on heart rate in rats (anesthetized, i.v.). The note with it: 5.0 mg/kg into jugular vein, pentobarbital-anesthetized rats. On the procedure:
The effect of the test substances on heart rate is tested in rats (two) with an average weight of from 250 to 300 g for each dose. The rats are anesthetized with pentobarbital (50 mg/kg i.p. and 20 mg/kg s.c.). The test substances are injected in aqueous solution into the jugular vein (0.1 ml/100 g). The blood pressure is measured using a canula tied into a carotid artery and heart rate was recorded from an ECG (II or III derivation) obtained with needle electrodes. The heart rate of the animals in the control period is between 350 and 400 beats per minute (b/min).

The test system of data set [2] is heart rate. The data set is described as follows: Effect on heart rate in cats (anesthetised, i.v.). The note with it: chloralose-anesthetised cats. On the procedure:
The effect of the test substances on heart rate is tested on cats (seven) of both sexes with an average weight of from 2.5 to 3.5 kg for each dose. The cats are anesthetised with chloralose (80 mg/kg). The test substance is injected in aqueous solution into the vena saphena. The heart rate is recorded before and after administration of the substance using a Grass tachograph from the electrocardiogram (electrode attached to the chest wall) on a Grass polygraph.

The nature of data set [3]: Toxic side effects in mice after intravenous administration. Particulars: administered intravenously, 20 mg/kg in mice. From the text:
The compounds prepared according to the invention have no toxic side effects in therapeutic doses. […] In view of their pharmacological properties the compounds according to the invention are suitable for the treatment of sinus tachycardia of various origins and for the prophylaxis and therapy of ischaemic heart diseases.

As for `COc1ccc2c(c1)CC(N(C)CCCN1CCc3cc(OC)c(OC)cc3CC1=O)CC2` (stereo not drawn) [Substance C, 1-7,8-Dimethoxy-1,3,4,5-tetrahydro-2H-3-benzazepin-2-on-3-yl]-3-[N-methyl-N-(7-methoxy-1,2,3,4-tetrahydronaphth-2-yl)-amino]-propane hydrochloride], the “Lowering of heart rate measured 20 minutes after administration of substance” value (shortened to “Lowering of heart rate … of substance”) in the data set with heart rate [1] was -184 b/min.

For the compound `COc1ccc2c(c1)CCC(N(C)CCCN1CCc3cc(OC)c(OC)cc3CC1=O)C2.Cl` (stereo not drawn) [Substance D, 1-[7,8-Dimethoxy-1,3,4,5-tetrahydro-2H-3-benzazepin-2-on-3-yl]-3-[N-methyl-N-(6-methoxy-1,2,3,4-tetrahydronaphth-2-yl)-amino]-propane hydrochloride], in the data set on heart rate [1], the “Lowering of heart rate … of substance” value was -165 b/min.

On to `COc1cc2c(cc1OC)CC(=O)N(CCCNC1CCc3cc(OC)c(OC)cc3C1)CC2.Cl` (stereo not drawn) [Substance B, 1-[7,8-Dimethoxy-1,3,4,5-tetrahydro-2H-3-benzazepin-2-on-3-yl]-3-[N-(6,7-dimethoxy-1,2,3,4-tetrahydronaphth-2-yl)-amino]-propane hydrochloride], for which the “Lowering of heart rate … of substance” value with heart rate [1] was -203 b/min. Besides, in the data set on heart rate [2] (1.0 mg/kg i.v.), the Half life was over 2 h and the “Lowering of heart rate” value is recorded as -55%. The toxic side effects entry in data set [3] was “no toxic side effects apart from slight sedation”.

Regarding `COc1cc2c(cc1OC)CC(=O)N(CCCN(C)C1CCc3cc(OC)c(OC)cc3C1)CC2.Cl` (stereo not drawn) [Substance A, 1-[7,8-Dimethoxy-1,3,4,5-tetrahydro-2H-3-benzazepin-2-on-3-yl]-3-[N-methyl-N-(6,7-dimethoxy-1,2,3,4-tetrahydronaphth-2-yl)-amino]-propane hydrochloride], in the data set on heart rate [1], the “Lowering of heart rate … of substance” value is -176 b/min. For the same compound, in the data set on heart rate [2] (0.3 mg/kg i.v.), the Half life was over 2 h and the “Lowering of heart rate” value is -30%. In the data set on heart rate [2] (1.0 mg/kg i.v.), the Half life is over 2 h and the “Lowering of heart rate” value was -58%. Also, the toxic side effects entry in data set [3] was “no toxic side effects apart from slight sedation”.
